The assay has as its target T1, HCV NS3/4A protease complex, BMS strain (UniProt P27958, species not given/STRAIN_BMS).
T1 construct: given for H77 and J4L6S, not expressly for BMS; fused on or other part: three-lysine solubilising tail at the end of NS4A (given for the H77 and J4L6S constructs)
The assay is described as follows: FRET peptide assay to monitor HCV NS3/4A proteolytic activity (BMS strain). In kind it is biochemical, HCV genotype 1a. The source says:
HCV NS3 protease complexes, derived from the BMS strain, H77 strain or J4L6S strain, were generated, as described below. These purified recombinant proteins were generated for use in a homogeneous assay (see below) to provide an indication of how effective compounds of the present disclosure would be in inhibiting HCV NS3 proteolytic activity.
Serum from an HCV-infected patient was obtained from Dr. T. Wright, San Francisco Hospital. An engineered full-length cDNA (compliment deoxyribonucleic acid) template of the HCV genome (BMS strain) was constructed from DNA fragments obtained by reverse transcription-PCR(RT-PCR) of serum RNA (ribonucleic acid) and using primers selected on the basis of homology between other genotype 1a strains. From the determination of the entire genome sequence, a genotype 1a was assigned to the HCV isolate according to the classification of Simmonds et al. (See P Simmonds, K A Rose, S Graham, S W Chan, F McOmish, B C Dow, E A Follett, P L Yap and H Marsden, J. Clin. Microbiol., 31(6), 1493-1503 (1993)). […] The infectious clones, H77 (1a genotype) and J4L6S (1b genotype) were obtained from R. Purcell (NIH) and the sequences are published in Genbank (AAB67036, see Yanagi, M., Purcell, R. H., Emerson, S. U. and Bukh, J. Proc. Natl. Acad. Sci. U.S.A. 94(16), 8738-8743 (1997); AF054247, see Yanagi, M., St Claire, M., Shapiro, M., Emerson, S. U., Purcell, R. H. and Bukh, J, Virology 244 (1), 161-172. (1998)).
NS3/4A protease complex-containing fractions were pooled and loaded on a desalting column Superdex-S200 pre-equilibrated with buffer D (25 mM HEPES, pH 7.5, 20% glycerol, 300 mM NaCl, 0.2% Triton X-100, 10 mM βME). Sample was loaded at a flow rate of 1 mL/min. NS3/4A protease complex-containing fractions were pooled and concentrated to approximately 0.5 mg/ml. The purity of the NS3/4A protease complexes, derived from the BMS, H77 and J4L6S strains, were judged to be greater than 90% by SDS-PAGE and mass spectrometry analyses. The enzyme was stored at −80° C., thawed on ice and diluted prior to use in assay buffer.
The purpose of this in vitro assay was to measure the inhibition of HCV NS3 protease complexes, derived from the BMS strain, H77 strain or J4L6S strain, as described above, by compounds of the present disclosure. This assay provides an indication of how effective compounds of the present disclosure would be in inhibiting HCV NS3 proteolytic activity.
In order to monitor HCV NS3/4A protease activity, an NS3/4A peptide substrate was used. The substrate was RET S1 (Resonance Energy Transfer Depsipeptide Substrate; AnaSpec, Inc. cat #22991)(FRET peptide), described by Taliani et al. in Anal. Biochem. 240(2):60-67 (1996). The sequence of this peptide is loosely based on the NS4A/NS4B natural cleavage site for the HCV NS3 protease except there is an ester linkage rather than an amide bond at the cleavage site. The peptide also contains a fluorescence donor, EDANS, near one end of the peptide and an acceptor, DABCYL, near the other end. The fluorescence of the peptide is quenched by […] resonance energy transfer (RET) between the donor and the acceptor, but as the NS3 protease cleaves the peptide the products are released from RET quenching and the fluorescence of the donor becomes apparent.
The peptide substrate was incubated with one of the three recombinant NS3/4A protease complexes, in the absence or presence of a compound of the present disclosure. The inhibitory effects of a compound were determined by monitoring the formation of fluorescent reaction product in real time using a Cytofluor Series 4000.
Assay buffer: 50 mM HEPES, pH 7.5; 0.15 M NaCl; 0.1% Triton; 15% Glycerol; 10 mM βME. Substrate: 2 μM final concentration (from a 2 mM stock solution in DMSO stored at −20° C.). HCV NS3/4A protease type 1a (1b), 2-3 nM final concentration (from a 5 μM stock solution in 25 mM HEPES, pH 7.5, 20% glycerol, 300 mM NaCl, 0.2% Triton-X100, 10 mM βME). […]

The structures appear in SMILES notation. pIC50: −log10 of the molar value. Where two headings read alike, the source gives them in different places.

T1 sequence (P27958 1027-1657, change not shown, one chain of several): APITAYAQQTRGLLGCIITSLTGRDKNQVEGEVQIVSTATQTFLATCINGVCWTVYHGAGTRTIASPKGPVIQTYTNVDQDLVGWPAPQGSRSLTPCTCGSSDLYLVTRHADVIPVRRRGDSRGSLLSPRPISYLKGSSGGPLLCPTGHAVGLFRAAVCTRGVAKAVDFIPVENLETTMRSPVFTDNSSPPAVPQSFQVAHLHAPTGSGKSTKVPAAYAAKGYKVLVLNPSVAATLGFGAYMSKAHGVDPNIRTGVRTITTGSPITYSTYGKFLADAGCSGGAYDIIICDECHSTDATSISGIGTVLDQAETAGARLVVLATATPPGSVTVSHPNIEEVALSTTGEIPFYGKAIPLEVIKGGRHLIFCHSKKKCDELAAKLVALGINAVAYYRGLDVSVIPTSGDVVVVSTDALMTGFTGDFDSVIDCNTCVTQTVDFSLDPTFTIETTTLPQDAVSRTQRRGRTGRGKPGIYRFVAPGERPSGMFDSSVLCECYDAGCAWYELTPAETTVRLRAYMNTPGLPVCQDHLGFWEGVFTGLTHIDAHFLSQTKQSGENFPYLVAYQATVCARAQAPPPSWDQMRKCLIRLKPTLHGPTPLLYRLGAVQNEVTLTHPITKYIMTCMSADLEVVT

Consider `C=C[C@@H]1C[C@]1(NC(=O)[C@@H]1C[C@@H](OC(=O)c2ccccc2)CN1C(=O)[C@@H](NC(=O)OC(C)(C)C)C(C)(C)C)C(=O)NS(=O)(=O)C1CC1` [Compound 1], for which the pIC50 is 7.30 to 9.00 (read-out: Activity Range (IC50), NS3/4A BMS strain) and 7.89 (read-out: IC50 against the NS3/4A BMS strain in the enzyme assay, BMS strain).

The values above are taken from patent US7935670B2, “Hepatitis C virus inhibitors” (Bristol-Myers Squibb Company, priority 2006, dated 2011).
